Structures are written as SMILES. Bounds are passed on as bounds.

The record followed here is ChEMBL document CHEMBL6083210, “Exploring apoptotic induction of malabaricone A in triple-negative breast cancer cells: an acylphenol phyto-entity isolated from the fruit rind of Myristica malabarica Lam” (RSC Med Chem, 2024).

Format in all cases: functional, cell-based
The test system of experiment [1] is MDA-MB-231. The experiment can be described thus: Antiproliferative activity against human MDA-MB-231 cells assessed as reduction in cell viability incubated for 24 hrs by MTT assay. Particulars: MDA-MB-231, 24 h. For orientation: Formazan colour is commonly taken as a measure of viable cells.
Experiment [2] concerns SK-BR-3. In words: Antiproliferative activity against human SK-BR-3 cells assessed as reduction in cell viability incubated for 24 hrs by MTT assay. Particulars: SK-BR-3, 24 h.
Experiment [3] has as its system MCF-10A. The experiment can be described thus: Antiproliferative activity against human MCF-10A cells assessed as reduction in cell viability incubated for 24 hrs by MTT assay.

In general, IC50 refers to the point on the concentration scale where inhibition reaches its midpoint. For the molecule `O=C(CCCCCCCCc1ccc2c(c1)OCO2)c1c(O)cccc1O`, the values for the IC50 in experiment [1], in experiment [2] and in experiment [3] were 15.1 µM, 9.3 µM and 82.6 µM, respectively.

Turning to `COc1cccc2c1C(=O)c1c(O)c3c(c(O)c1C2=O)C[C@@](O)(C(=O)CO)C[C@@H]3O[C@H]1C[C@H](N)[C@H](O)[C@H](C)O1` [DOXORUBICIN], the IC50 in experiment [1] was 20.8 µM; in experiment [2], above 50 µM; in experiment [3], 35.2 µM.
